# Results taken from patent US20260069588A1, “VEPDEGESTRANT FOR USE IN TREATING CANCER” (Arvinas Operation, Inc., priority 2022, published 2026).
# Assay: FIH Study Part A dose escalation: adverse events
# From the text: TEAEs and TRAEs from the clinical study database were coded to system organ class and preferred term using MedDRA version 22.0 and SAEs from the centralized safety database were coded using MedDRA version 25.0. The severity of adverse events was graded according to the NCI CTCAE version 5.0.
structure (smiles),measurement,setting,value
"O=C1CC[C@H](N2Cc3cc(N4CCN(CC5CCN(c6ccc([C@@H]7c8ccc(O)cc8CC[C@@H]7c7ccccc7)cc6)CC5)CC4)ccc3C2=O)C(=O)N1 [Compound A, (S)-3-(5-(4-((1-(4-((1R,2S)-6-hydroxy-2-phenyl-1,2,3,4-tetrahydronaphthalen-1-yl)phenyl)piperidin-4-yl)methyl)piperazin-1-yl)-1-oxoisoindolin-2-yl)piperidine-2,6-dione]",TEAE Alanine aminotransferase increased,30 mg (N=3),0 n
same,TEAE Arthralgia,30 mg (N=3),0 n
same,TEAE Aspartate aminotransferase increased,30 mg (N=3),0 n
same,TEAE Back pain,30 mg (N=3),0 n
same,TEAE Constipation,30 mg (N=3),0 n
same,TEAE Decreased appetite,30 mg (N=3),0 n
same,TEAE Diarrhea,30 mg (N=3),0 n
same,TEAE Dizziness,30 mg (N=3),0 n
same,TEAE Fatigue,30 mg (N=3),0 n
same,TEAE Headache,30 mg (N=3),0 n
same,TEAE Hot flush,30 mg (N=3),1 n
same,TEAE Hyperglycemia,30 mg (N=3),0 n
same,TEAE Insomnia,30 mg (N=3),1 n
same,TEAE Nausea,30 mg (N=3),0 n
same,TEAE Pain in extremity,30 mg (N=3),0 n
same,TEAE Vomiting,30 mg (N=3),0 n
same,TRAE Arthralgia,30 mg (N=3),0 n
same,TRAE Constipation,30 mg (N=3),0 n
same,TRAE Decreased appetite,30 mg (N=3),0 n
same,TRAE Fatigue,30 mg (N=3),0 n
same,TRAE Hot flush,30 mg (N=3),0 n
same,TRAE Nausea,30 mg (N=3),0 n
same,TRAE Vomiting,30 mg (N=3),0 n
same,TEAE Alanine aminotransferase increased,60 mg (N=3),0 n
same,TEAE Arthralgia,60 mg (N=3),1 n
same,TEAE Aspartate aminotransferase increased,60 mg (N=3),0 n
same,TEAE Back pain,60 mg (N=3),0 n
same,TEAE Constipation,60 mg (N=3),1 n
same,TEAE Decreased appetite,60 mg (N=3),0 n
same,TEAE Diarrhea,60 mg (N=3),0 n
same,TEAE Dizziness,60 mg (N=3),1 n
same,TEAE Fatigue,60 mg (N=3),1 n
same,TEAE Headache,60 mg (N=3),1 n
same,TEAE Hot flush,60 mg (N=3),0 n
same,TEAE Hyperglycemia,60 mg (N=3),0 n
same,TEAE Insomnia,60 mg (N=3),0 n
same,TEAE Nausea,60 mg (N=3),2 n
same,TEAE Pain in extremity,60 mg (N=3),1 n
same,TEAE Vomiting,60 mg (N=3),0 n
same,TRAE Arthralgia,60 mg (N=3),1 n
same,TRAE Constipation,60 mg (N=3),0 n
same,TRAE Decreased appetite,60 mg (N=3),0 n
same,TRAE Fatigue,60 mg (N=3),1 n
same,TRAE Hot flush,60 mg (N=3),0 n
same,TRAE Nausea,60 mg (N=3),2 n
same,TRAE Vomiting,60 mg (N=3),0 n
same,TEAE Alanine aminotransferase increased,100 mg (N=9),0 n
same,TEAE Arthralgia,100 mg (N=9),2 n
same,TEAE Aspartate aminotransferase increased,100 mg (N=9),0 n
same,TEAE Back pain,100 mg (N=9),1 n
same,TEAE Constipation,100 mg (N=9),2 n
same,TEAE Decreased appetite,100 mg (N=9),2 n
same,TEAE Diarrhea,100 mg (N=9),4 n
same,TEAE Dizziness,100 mg (N=9),0 n
same,TEAE Fatigue,100 mg (N=9),2 n
same,TEAE Headache,100 mg (N=9),1 n
same,TEAE Hot flush,100 mg (N=9),1 n
same,TEAE Hyperglycemia,100 mg (N=9),0 n
same,TEAE Insomnia,100 mg (N=9),0 n
same,TEAE Nausea,100 mg (N=9),2 n
same,TEAE Pain in extremity,100 mg (N=9),0 n
same,TEAE Vomiting,100 mg (N=9),1 n
same,TRAE Arthralgia,100 mg (N=9),1 n
same,TRAE Constipation,100 mg (N=9),1 n
same,TRAE Decreased appetite,100 mg (N=9),2 n
same,TRAE Fatigue,100 mg (N=9),1 n
same,TRAE Hot flush,100 mg (N=9),1 n
same,TRAE Nausea,100 mg (N=9),1 n
same,TRAE Vomiting,100 mg (N=9),0 n
same,TEAE Alanine aminotransferase increased,120 mg (N=7),1 n
same,TEAE Arthralgia,120 mg (N=7),2 n
same,TEAE Aspartate aminotransferase increased,120 mg (N=7),3 n
same,TEAE Back pain,120 mg (N=7),1 n
same,TEAE Constipation,120 mg (N=7),2 n
same,TEAE Decreased appetite,120 mg (N=7),3 n
same,TEAE Diarrhea,120 mg (N=7),0 n
same,TEAE Dizziness,120 mg (N=7),1 n
same,TEAE Fatigue,120 mg (N=7),0 n
same,TEAE Headache,120 mg (N=7),2 n
same,TEAE Hot flush,120 mg (N=7),1 n
same,TEAE Hyperglycemia,120 mg (N=7),1 n
same,TEAE Insomnia,120 mg (N=7),1 n
same,TEAE Nausea,120 mg (N=7),2 n
same,TEAE Pain in extremity,120 mg (N=7),2 n
same,TEAE Vomiting,120 mg (N=7),2 n
same,TRAE Arthralgia,120 mg (N=7),2 n
same,TRAE Constipation,120 mg (N=7),1 n
same,TRAE Decreased appetite,120 mg (N=7),3 n
same,TRAE Fatigue,120 mg (N=7),0 n
same,TRAE Hot flush,120 mg (N=7),0 n
same,TRAE Nausea,120 mg (N=7),2 n
same,TRAE Vomiting,120 mg (N=7),2 n
same,TEAE Alanine aminotransferase increased,180 mg (N=7),2 n
same,TEAE Arthralgia,180 mg (N=7),2 n
same,TEAE Aspartate aminotransferase increased,180 mg (N=7),2 n
same,TEAE Back pain,180 mg (N=7),0 n
same,TEAE Constipation,180 mg (N=7),1 n
same,TEAE Decreased appetite,180 mg (N=7),0 n
same,TEAE Diarrhea,180 mg (N=7),0 n
same,TEAE Dizziness,180 mg (N=7),0 n
same,TEAE Fatigue,180 mg (N=7),2 n
same,TEAE Headache,180 mg (N=7),0 n
same,TEAE Hot flush,180 mg (N=7),0 n
same,TEAE Hyperglycemia,180 mg (N=7),0 n
same,TEAE Insomnia,180 mg (N=7),0 n
same,TEAE Nausea,180 mg (N=7),2 n
same,TEAE Pain in extremity,180 mg (N=7),1 n
same,TEAE Vomiting,180 mg (N=7),0 n
same,TRAE Arthralgia,180 mg (N=7),1 n
same,TRAE Constipation,180 mg (N=7),0 n
same,TRAE Decreased appetite,180 mg (N=7),0 n
same,TRAE Fatigue,180 mg (N=7),1 n
same,TRAE Hot flush,180 mg (N=7),0 n
same,TRAE Nausea,180 mg (N=7),2 n
same,TRAE Vomiting,180 mg (N=7),0 n
same,TEAE Alanine aminotransferase increased,200 mg (N=8),2 n
same,TEAE Arthralgia,200 mg (N=8),1 n
same,TEAE Aspartate aminotransferase increased,200 mg (N=8),3 n
same,TEAE Back pain,200 mg (N=8),1 n
same,TEAE Constipation,200 mg (N=8),2 n
same,TEAE Decreased appetite,200 mg (N=8),0 n
same,TEAE Diarrhea,200 mg (N=8),1 n
same,TEAE Dizziness,200 mg (N=8),0 n
same,TEAE Fatigue,200 mg (N=8),1 n
same,TEAE Headache,200 mg (N=8),1 n
same,TEAE Hot flush,200 mg (N=8),1 n
same,TEAE Hyperglycemia,200 mg (N=8),1 n
same,TEAE Insomnia,200 mg (N=8),1 n
same,TEAE Nausea,200 mg (N=8),3 n
same,TEAE Pain in extremity,200 mg (N=8),0 n
same,TEAE Vomiting,200 mg (N=8),1 n
same,TRAE Arthralgia,200 mg (N=8),1 n
same,TRAE Constipation,200 mg (N=8),2 n
same,TRAE Decreased appetite,200 mg (N=8),0 n
same,TRAE Fatigue,200 mg (N=8),0 n
same,TRAE Hot flush,200 mg (N=8),1 n
